{"source": "patent US4262128A", "about": "“Nitrogen heterocycles” (Burroughs Wellcome Co., priority 1976, dated 1981)", "key": {"[1]": {"tested_on": "vascular smooth muscle", "experiment": "Relaxation of vascular smooth muscle", "details": "similar to prostaglandin A and E series; general statement"}, "[2]": {"tested_on": "male normotensive rats Wistar (Charles River) strain", "experiment": "Cardiovascular effects in rats (fall in blood pressure, anaesthetised normotensive rats)", "type": "in vivo, rat", "details": "i.v.", "protocol": "Male normotensive rats Wistar (Charles River) strain, (250-350 g) were anesthetised (chloroform) prior to cannulation of the left femoral vein and anaesthesia maintained by intravenous chloralose (60 mg/kg). Pulsatile blood pressure was recorded from the left femoral artery with an electronic transducer (Bell and Howell Type 4-327 L221) and integrated heart rate was measured with a cardiotachometer triggered from the arterial pressure waves.\nThe test compound was administered as a solution in physiological saline by intravenous injection via the femoral cannula. The responses recorded were allowed to return to the preinjection levels between successive administrations."}, "[3]": {"tested_on": "histamine-induced broncho-constriction", "experiment": "Histamine-induced broncho-constriction", "type": "in vivo, guinea-pig"}, "[4]": {"tested_on": "human platelet rich plasma (PRP)", "experiment": "Inhibition of ADP-stimulated platelet aggregation (Born aggregometer)", "type": "cell-based", "protocol": "Aggregation of platelets in 1 ml. of fresh humam platelet rich plasma (PRP) was monitored in a Born aggregometer.\nThe compound to be tested was added to the PRP at the desired concentration, and the resulting mixture incubated at 37° C. for 1 minute after which platelet aggregation was stimulated by the addition of adenosine diphosphate (ADP) to a concentration of 5 μM.\nThe anti-aggregatory effect of the compound was assessed by measuring the percentage inhibition of platelet aggregation in the presence of the compound as compared when it was completely absent."}, "[5]": {"tested_on": "electrically-induced arterial thrombosis", "experiment": "Electrically-induced arterial thrombosis in anaesthetised rabbits", "type": "in vivo, rabbit", "details": "intravenous infusion 250 μg/min"}, "[6]": {"tested_on": "aspirin-induced gastric ulceration", "experiment": "Aspirin-induced gastric ulceration / lesions in rats", "type": "in vivo, rat", "details": "for reduction of aspirin-induced gastric lesions: general statement, no dose"}, "[7]": {"tested_on": "pentagastrin-induced gastric acid secretion", "experiment": "Pentagastrin-induced gastric acid secretion in rats", "type": "in vivo, rat"}, "[8]": {"tested_on": "rat", "experiment": "Cardiovascular effects in the rat (blood pressure and heart rate, with and without propranolol or atropine)", "type": "in vivo"}, "[9]": {"tested_on": "dogs", "experiment": "Urine volume in dogs, intravenous infusion", "type": "in vivo, dog"}, "[10]": {"details": "Compound 14 (m.p. 96°-98°) 2 mg/kg i.v. with propranolol 3 mg/kg"}, "[11]": {"details": "Compound 14 (m.p. 96°-98°) 2 mg/kg i.v., no propranolol"}, "[12]": {"details": "Compound 14 (m.p. 96°-98°) 5 mg/kg i.v. with propranolol 3 mg/kg"}, "[13]": {"details": "Compound 14 (m.p. 96°-98°) 5 mg/kg i.v., no propranolol"}}}
{"smiles": "CC(C)(Cc1ccccc1)C(O)CCN1C(=O)NC(=O)C1CCCCCCC(=O)O", "note": "(stereo not shown) [Example 1, 5-(6-carboxyhexyl)-1-(3-hydroxy-4,4-dimethyl-5-phenylpentyl)-hydantoin]", "values": [{"measurement": "relaxation of vascular smooth muscle", "setting": "[1]", "value": "relaxation of vascular smooth muscle"}]}
{"smiles": "CCCCC(C)(C)C(O)CCN1C(=O)NC(=O)C1CCCCCCC(=O)O", "note": "(stereo not shown) [Compound 9, 5-(6-Carboxyhexyl)-1-(3-hydroxy-4,4-dimethyloctyl)hydantoin]", "values": [{"measurement": "relaxation of vascular smooth muscle", "setting": "[1]", "value": "relaxation of vascular smooth muscle"}, {"measurement": "Mean fall in blood pressure", "setting": "[2]; 3 mg/kg", "value": 22, "unit": "mmHg"}, {"measurement": "antagonism of histamine induced broncho-constriction (PGE1-like)", "setting": "[3]; general statement, no dose", "value": "mimics the effect of PGE1 of antagonising histamine induced broncho-constriction"}, {"measurement": "antagonism of histamine-induced broncho-constriction", "setting": "[3]; intravenous injection 50 μg/kg, anaesthetised guinea-pigs", "value": "completely anatagonise"}]}
{"smiles": "CCCCCC(O)CCN1C(=O)NC(=O)C1CCCCCCC(=O)O", "note": "(stereo not shown) [Compound 2 (m.p. 76°-78°), 5-(6-Carboxyhexyl)-1-(3-hydroxyoctyl)hydantoin]", "values": [{"measurement": "relative potency with respect to PGE1 (inhibition of platelet aggregation)", "setting": "[4]", "value": 12.5, "unit": "×"}, {"measurement": "reduction of electrically-induced arterial thrombosis", "setting": "[5]", "value": "reduce electrically-induced arterial thrombosis"}]}
{"smiles": "CCCCCC(=O)CCN1C(=O)NC(=O)C1CCCCCCC(=O)O", "note": "(stereo not shown) [Example 88, 5-(6-carboxyhexyl)-1-(3-oxooctyl)hydantoin]", "values": [{"measurement": "reduction of aspirin-induced gastric lesions", "setting": "[6]", "value": "reduce the formation of aspirin-induced gastric lesions"}, {"measurement": "inhibition of pentagastrin-induced gastric acid secretion", "setting": "[7]; general statement, no dose", "value": "inhibit pentagastrin-induced gastric acid secretion"}]}
{"smiles": "CCCCCC(=O)CCN1C(=O)N(C)C(=O)C1CCCCCCC(=O)O", "note": "(stereo not shown) [Compound 90, 5-(6-Carboxyhexyl)-3-methyl-1-(3-oxooctyl)hydantoin]", "values": [{"measurement": "reduction of aspirin-induced gastric lesions", "setting": "[6]", "value": "reduce the formation of aspirin-induced gastric lesions"}, {"measurement": "protection against aspirin-induced gastric ulceration", "setting": "[6]; oral dose of 1 mg/kg", "value": 80, "unit": "%"}, {"measurement": "inhibition of pentagastrin-induced gastric acid secretion", "setting": "[7]; general statement, no dose", "value": "inhibit pentagastrin-induced gastric acid secretion"}]}
{"smiles": "CC(C)(C)C(O)CCN1C(=O)NC(=O)C1CCCCCCC(=O)O", "note": "(stereo not shown) [Compound 4 (m.p. 144°-146°), 5-(6-Carboxyhexyl)-1-(3-hydroxy-4,4-dimethylpentyl)hydantoin]", "values": [{"measurement": "relative potency with respect to PGE1 (inhibition of platelet aggregation)", "setting": "[4]", "value": 0.05, "unit": "×"}]}
{"smiles": "O=C(O)CCCCCCC1C(=O)NC(=O)N1CCC(O)C1CCC1", "note": "(stereo not shown) [Compound 11 (114°-116°), 5-(6-Carboxyhexyl)-1-(3-hydroxy-3-cyclobutylpropyl)hydantoin]", "values": [{"measurement": "relative potency with respect to PGE1 (inhibition of platelet aggregation)", "setting": "[4]", "value": 5.2, "unit": "×"}]}
{"smiles": "O=C(O)CCCCCCC1C(=O)NC(=O)N1CCCCOc1ccccc1", "note": "(stereo not shown) [Example 79b, 5-(6-carboxyhexyl)-1-(4-phenoxybutyl)hydantoin]", "values": [{"measurement": "reduction of aspirin-induced gastric lesions", "setting": "[6]", "value": "reduce the formation of aspirin-induced gastric lesions"}, {"measurement": "inhibition of pentagastrin-induced gastric acid secretion", "setting": "[7]; general statement, no dose", "value": "inhibit pentagastrin-induced gastric acid secretion"}]}
{"smiles": "CC(C)NCC(O)COc1cccc2ccccc12", "note": "(stereo not shown) [propranolol, reference compound]", "values": [{"measurement": "effect of concurrent propranolol on hypotensive action of Compound 14", "setting": "[8]; concurrent dose of propranolol", "value": "without significantly effecting the hypotensive action"}, {"measurement": "effect of concurrent propranolol on tachycardia caused by Compound 14", "setting": "[8]; concurrent dose of propranolol", "value": "considerably reduced the tachycardia"}]}
{"smiles": "O=C(O)CCCCCCC1C(=O)NC(=O)N1CCC(O)C1CCCC1", "note": "(stereo not shown) [Compound 12 (m.p. 116-117°), 5-(6-Carboxyhexyl)-1-(3-hydroxy-3-cyclopentylpropyl)hydantoin]", "values": [{"measurement": "inhibition at 0.0005 µg/mL", "setting": "[4]; Homo sapiens, Platelet, 0.5 ng/ml, ADP 5 μM", "value": 25, "unit": "%"}, {"measurement": "inhibition at 0.001 µg/mL", "setting": "[4]; Homo sapiens, Platelet, 1.0 ng/ml, ADP 5 μM", "value": 51, "unit": "%"}, {"measurement": "inhibition at 0.002 µg/mL", "setting": "[4]; Homo sapiens, Platelet, 2.0 ng/ml, ADP 5 μM", "value": 79, "unit": "%"}, {"measurement": "inhibition at 0.004 µg/mL", "setting": "[4]; Homo sapiens, Platelet, 4.0 ng/ml, ADP 5 μM", "value": 94, "unit": "%"}, {"measurement": "relative potency with respect to PGE1 (inhibition of platelet aggregation)", "setting": "[4]", "value": 12.5, "unit": "×"}]}
{"smiles": "CCCCCCC(O)CCN1C(=O)NC(=O)C1CCCCCCC(=O)O", "note": "(stereo not shown) [Compound 6, 5-(6-Carboxyhexyl)-1-(3-hydroxynonyl)hydantoin]", "values": [{"measurement": "Mean fall in blood pressure", "setting": "[2]; 3 mg/kg", "value": 40, "unit": "mmHg"}]}
{"smiles": "CCCCC[C@H](O)/C=C/[C@H]1[C@H](O)CC(=O)[C@@H]1C/C=C\\CCCC(=O)O", "note": "[PGE2, reference compound]", "values": [{"measurement": "Mean fall in blood pressure", "setting": "[2]; 4 μg/kg", "value": 28, "unit": "mmHg"}, {"measurement": "Mean fall in blood pressure", "setting": "[2]; 16 μ/kg", "value": 44, "unit": "mmHg"}]}
{"smiles": "CCCCCC(O)CCN1C(=O)NC(=O)C1CCCCCCC(=O)O", "note": "(stereo not shown) [Compound 2, 5-(6-Carboxyhexyl)-1-(3-hydroxyoctyl)hydantoin]", "values": [{"measurement": "reduction of aspirin-induced gastric lesions", "setting": "[6]", "value": "reduce the formation of aspirin-induced gastric lesions"}, {"measurement": "inhibition of pentagastrin-induced gastric acid secretion", "setting": "[7]; general statement, no dose", "value": "inhibit pentagastrin-induced gastric acid secretion"}, {"measurement": "inhibition of pentagastrin-induced gastric acid secretion", "setting": "[7]; intravenous dose of 30 μg/kg, rats", "value": "completely inhibited"}, {"measurement": "increase of urine volume", "setting": "[9]", "value": "increase urine volume"}, {"measurement": "Mean fall in blood pressure", "setting": "[2]; 10 μg/kg", "value": 14, "unit": "mmHg"}, {"measurement": "Mean fall in blood pressure", "setting": "[2]; 1 mg/kg", "value": 42, "unit": "mmHg"}]}
{"smiles": "CCCCC[C@H](O)/C=C/[C@H]1[C@H](O)CC(=O)[C@@H]1CCCCCCC(=O)O", "note": "[PGE1, reference compound]", "values": [{"measurement": "inhibition at 0.015 µg/mL", "setting": "[4]; Homo sapiens, Platelet, 15 ng/ml, ADP 5 μM", "value": 33, "unit": "%"}, {"measurement": "inhibition at 0.02 µg/mL", "setting": "[4]; Homo sapiens, Platelet, 20 ng/ml, ADP 5 μM", "value": 47, "unit": "%"}, {"measurement": "inhibition at 0.03 µg/mL", "setting": "[4]; Homo sapiens, Platelet, 30 ng/ml, ADP 5 μM", "value": 63, "unit": "%"}, {"measurement": "inhibition at 0.04 µg/mL", "setting": "[4]; Homo sapiens, Platelet, 40 ng/ml, ADP 5 μM", "value": 69, "unit": "%"}]}
{"smiles": "O=C(O)CCCCCCC1C(=O)NC(=O)N1CCC(O)C1CCCCC1", "note": "(stereo not shown) [Compound 14, 5-(6-Carboxyhexyl)-1-(3-hydroxy-3-cyclohexylpropyl)hydantoin]", "values": [{"measurement": "Mean fall b.p. (±SD)", "setting": "[8]; [10]", "value": "28 ± 5"}, {"measurement": "Mean rise hrt.rate (±S.D)", "setting": "[8]; [10]", "value": "6.5 ± 3"}, {"measurement": "Mean fall b.p. (±SD)", "setting": "[8]; [11]", "value": "28 ± 6.5"}, {"measurement": "Mean rise hrt.rate (±S.D)", "setting": "[8]; [11]", "value": "44 ± 7"}, {"measurement": "Mean fall b.p. (±SD)", "setting": "[8]; [12]", "value": "27 ± 7.5"}, {"measurement": "Mean rise hrt.rate (±S.D)", "setting": "[8]; [12]", "value": "11.5 ± 2.5"}, {"measurement": "Mean fall b.p. (±SD)", "setting": "[8]; [13]", "value": "34 ± 3"}, {"measurement": "Mean rise hrt.rate (±S.D)", "setting": "[8]; [13]", "value": "47.5 ± 2.5"}]}
{"smiles": "O=C(O)CCCCCCC1C(=O)NC(=O)N1CCC(O)C1CCCCC1", "note": "(stereo not shown) [Compound 14 (m.p. 96°-98°), 5-(6-Carboxyhexyl)-1-(3-hydroxy-3-cyclohexylpropyl)hydantoin]", "values": [{"measurement": "relative potency with respect to PGE1 (inhibition of platelet aggregation)", "setting": "[4]", "value": 16, "unit": "×"}, {"measurement": "hypotensive effect in the rat", "setting": "[8]; i.v., in words", "value": "substantial hypotensive effect"}, {"measurement": "tachycardia accompanying the hypotension", "setting": "[8]; i.v., in words", "value": "accompanied by tachycardia"}]}
{"smiles": "CN1[C@@H]2CC[C@H]1C[C@@H](OC(=O)C(CO)c1ccccc1)C2", "note": "(stereo partly shown) [atropine, reference compound]", "values": [{"measurement": "effect of concurrent atropine on hypotensive effect of Compound 14", "setting": "[8]; atropine 2 mg/kg i.v.", "value": "did not significantly affect"}, {"measurement": "effect of concurrent atropine on tachycardiac effect of Compound 14", "setting": "[8]; atropine 2 mg/kg i.v.", "value": "did not significantly affect"}]}
